Test system: weeds
Experiment: Glasshouse weed control by HST/HPPD (mesotrione) mixtures, pre-emergence
Format: in vivo
Conditions: for colby: Colby synergy score; for % Damage at 14 DAA, 1 g ai ha^−1 mesotrione / % Damage at 14 DAA, no-mesotrione: N = 3
Method: Weed seeds are planted out in trays containing suitable soil (for example 50% peat, 50% John Innes soil no 3) and grown in the glass house conditions under 24-27° C. day; 18-21° C. night and approximately a 14 h (or longer in UK summer) photoperiod. Humidity is ˜65% and light levels up to 2000 μmol/m^2 at bench level. Trays are sprayed with test chemicals dissolved in water with 0.2-0.25% X-77 surfactant and sprayed from a boom on a suitable track sprayer moving at about 2 mph in a suitable track sprayer (for example a DeVries spray chamber with the nozzle about 2 inches from the plant tops). Spray volume is suitably 500-1000 l/ha. Sprays are carried out both pre-emergence and over small plants at about 7-12 d post-emergence
Plants are assessed 14 DAT and herbicidal damage is scored on a scale from 0 to 100%. The HST inhibitor compound 2.30 (designated compound A in table 16 and 17), haloxydine (compound 1.1) and compound 2.13 (designated compound AE in tables 16 and 17) are sprayed at rates between 0 and 500 g/ha.

[1] = ALOMY, 16 g/ha + mesotrione 1 g ai/ha
[2] = ALOMY, 31 g/ha + mesotrione 1 g ai/ha
[3] = ALOMY, 63 g/ha + mesotrione 1 g ai/ha
[4] = ALOMY, 125 g/ha + mesotrione 1 g ai/ha
[5] = ALOMY, 250 g/ha + mesotrione 1 g ai/ha
[6] = ALOMY, 500 g/ha + mesotrione 1 g ai/ha
[7] = AMARE, 16 g/ha + mesotrione 1 g ai/ha
[8] = AMARE, 31 g/ha + mesotrione 1 g ai/ha
[9] = AMARE, 63 g/ha + mesotrione 1 g ai/ha
[10] = AMARE, 125 g/ha + mesotrione 1 g ai/ha
[11] = AMARE, 250 g/ha + mesotrione 1 g ai/ha
[12] = AMARE, 500 g/ha + mesotrione 1 g ai/ha
[13] = ECHCG, 16 g/ha + mesotrione 1 g ai/ha
[14] = ECHCG, 31 g/ha + mesotrione 1 g ai/ha
[15] = ECHCG, 63 g/ha + mesotrione 1 g ai/ha
[16] = ECHCG, 125 g/ha + mesotrione 1 g ai/ha
[17] = ECHCG, 250 g/ha + mesotrione 1 g ai/ha
[18] = ECHCG, 500 g/ha + mesotrione 1 g ai/ha
[19] = IPOHE, 16 g/ha + mesotrione 1 g ai/ha
[20] = IPOHE, 31 g/ha + mesotrione 1 g ai/ha
[21] = IPOHE, 63 g/ha + mesotrione 1 g ai/ha
[22] = IPOHE, 125 g/ha + mesotrione 1 g ai/ha
[23] = IPOHE, 250 g/ha + mesotrione 1 g ai/ha
[24] = IPOHE, 500 g/ha + mesotrione 1 g ai/ha
[25] = SETFA, 16 g/ha + mesotrione 1 g ai/ha
[26] = SETFA, 31 g/ha + mesotrione 1 g ai/ha
[27] = SETFA, 63 g/ha + mesotrione 1 g ai/ha
[28] = SETFA, 125 g/ha + mesotrione 1 g ai/ha
[29] = SETFA, 250 g/ha + mesotrione 1 g ai/ha
[30] = SETFA, 500 g/ha + mesotrione 1 g ai/ha
[31] = SOLNI, 16 g/ha + mesotrione 1 g ai/ha
[32] = SOLNI, 31 g/ha + mesotrione 1 g ai/ha
[33] = SOLNI, 63 g/ha + mesotrione 1 g ai/ha
[34] = SOLNI, 125 g/ha + mesotrione 1 g ai/ha
[35] = SOLNI, 250 g/ha + mesotrione 1 g ai/ha
[36] = SOLNI, 500 g/ha + mesotrione 1 g ai/ha

In the case of O=c1c(Cl)c(F)[nH]c(F)c1Cl [Haloxidine], the colby [1] is reported as 5%, the “% Damage at 14 DAA, 1 g ai ha^−1 mesotrione” value [1] is reported as 8% and the “% Damage at 14 DAA, no-mesotrione” value (ALOMY, 16 g/ha) is reported as 3%. The colby [2] was 12%, the “% Damage at 14 DAA, 1 g ai ha^−1 mesotrione” value [2] was 25% and the “% Damage at 14 DAA, no-mesotrione” value (ALOMY, 31 g/ha) was 13%. The colby [3] was 8%, the “% Damage at 14 DAA, 1 g ai ha^−1 mesotrione” value [3] was 50% and the “% Damage at 14 DAA, no-mesotrione” value (ALOMY, 63 g/ha) was 42%. For the same compound, the colby [4] was 10%, the “% Damage at 14 DAA, 1 g ai ha^−1 mesotrione” value [4] was 77% and the “% Damage at 14 DAA, no-mesotrione” value (ALOMY, 125 g/ha) was 67%. The colby [5] was −3%, the “% Damage at 14 DAA, 1 g ai ha^−1 mesotrione” value [5] was 78% and the “% Damage at 14 DAA, no-mesotrione” value (ALOMY, 250 g/ha) was 82%. The colby [6] was −2%, the “% Damage at 14 DAA, 1 g ai ha^−1 mesotrione” value [6] was 83% and the “% Damage at 14 DAA, no-mesotrione” value (ALOMY, 500 g/ha) was 85%. For the same compound, the colby [7] was 2%, the “% Damage at 14 DAA, 1 g ai ha^−1 mesotrione” value [7] was 42% and the “% Damage at 14 DAA, no-mesotrione” value (AMARE, 16 g/ha) was 38%. For the same compound, the colby [8] was 1%, the “% Damage at 14 DAA, 1 g ai ha^−1 mesotrione” value [8] was 75% and the “% Damage at 14 DAA, no-mesotrione” value (AMARE, 31 g/ha) was 73%. For the same compound, the colby [9] was 5%, the “% Damage at 14 DAA, 1 g ai ha^−1 mesotrione” value [9] was 93% and the “% Damage at 14 DAA, no-mesotrione” value (AMARE, 63 g/ha) was 88%. The colby [10] was 0%, the “% Damage at 14 DAA, 1 g ai ha^−1 mesotrione” value [10] was 100% and the “% Damage at 14 DAA, no-mesotrione” value (AMARE, 125 g/ha) was 100%. For the same compound, the colby [11] was 0%, the “% Damage at 14 DAA, 1 g ai ha^−1 mesotrione” value [11] was 100% and the “% Damage at 14 DAA, no-mesotrione” value (AMARE, 250 g/ha) was 100%. The colby [12] was 0%, the “% Damage at 14 DAA, 1 g ai ha^−1 mesotrione” value [12] was 100% and the “% Damage at 14 DAA, no-mesotrione” value (AMARE, 500 g/ha) was 100%. For the same compound, the colby [13] was 7%, the “% Damage at 14 DAA, 1 g ai ha^−1 mesotrione” value [13] was 20% and the “% Damage at 14 DAA, no-mesotrione” value (ECHCG, 16 g/ha) was 13%. The colby [14] was −2%, the “% Damage at 14 DAA, 1 g ai ha^−1 mesotrione” value [14] was 23% and the “% Damage at 14 DAA, no-mesotrione” value (ECHCG, 31 g/ha) was 25%. For the same compound, the colby [15] was 13%, the “% Damage at 14 DAA, 1 g ai ha^−1 mesotrione” value [15] was 53% and the “% Damage at 14 DAA, no-mesotrione” value (ECHCG, 63 g/ha) was 40%. The colby [16] was 5%, the “% Damage at 14 DAA, 1 g ai ha^−1 mesotrione” value [16] was 78% and the “% Damage at 14 DAA, no-mesotrione” value (ECHCG, 125 g/ha) was 73%. For the same compound, the colby [17] was −8%, the “% Damage at 14 DAA, 1 g ai ha^−1 mesotrione” value [17] was 83% and the “% Damage at 14 DAA, no-mesotrione” value (ECHCG, 250 g/ha) was 92%. For the same compound, the colby [18] was 7%, the “% Damage at 14 DAA, 1 g ai ha^−1 mesotrione” value [18] was 95% and the “% Damage at 14 DAA, no-mesotrione” value (ECHCG, 500 g/ha) was 88%. The colby [19] was 0%, the “% Damage at 14 DAA, 1 g ai ha^−1 mesotrione” value [19] was 0% and the “% Damage at 14 DAA, no-mesotrione” value (IPOHE, 16 g/ha) was 0%. The colby [20] was 0%, the “% Damage at 14 DAA, 1 g ai ha^−1 mesotrione” value [20] was 0% and the “% Damage at 14 DAA, no-mesotrione” value (IPOHE, 31 g/ha) was 0%. For the same compound, the colby [21] was −7%, the “% Damage at 14 DAA, 1 g ai ha^−1 mesotrione” value [21] was 8% and the “% Damage at 14 DAA, no-mesotrione” value (IPOHE, 63 g/ha) was 15%. For the same compound, the colby [22] was −10%, the “% Damage at 14 DAA, 1 g ai ha^−1 mesotrione” value [22] was 52% and the “% Damage at 14 DAA, no-mesotrione” value (IPOHE, 125 g/ha) was 62%. For the same compound, the colby [23] was −13%, the “% Damage at 14 DAA, 1 g ai ha^−1 mesotrione” value [23] was 67% and the “% Damage at 14 DAA, no-mesotrione” value (IPOHE, 250 g/ha) was 80%. The colby [24] was 3%, the “% Damage at 14 DAA, 1 g ai ha^−1 mesotrione” value [24] was 87% and the “% Damage at 14 DAA, no-mesotrione” value (IPOHE, 500 g/ha) was 83%. The colby [25] was 10%, the “% Damage at 14 DAA, 1 g ai ha^−1 mesotrione” value [25] was 10% and the “% Damage at 14 DAA, no-mesotrione” value (SETFA, 16 g/ha) was 0%. The colby [26] was 7%, the “% Damage at 14 DAA, 1 g ai ha^−1 mesotrione” value [26] was 32% and the “% Damage at 14 DAA, no-mesotrione” value (SETFA, 31 g/ha) was 25%. The colby [27] was 8%, the “% Damage at 14 DAA, 1 g ai ha^−1 mesotrione” value [27] was 58% and the “% Damage at 14 DAA, no-mesotrione” value (SETFA, 63 g/ha) was 50%. The colby [28] was 2%, the “% Damage at 14 DAA, 1 g ai ha^−1 mesotrione” value [28] was 90% and the “% Damage at 14 DAA, no-mesotrione” value (SETFA, 125 g/ha) was 88%. The colby [29] was 0%, the “% Damage at 14 DAA, 1 g ai ha^−1 mesotrione” value [29] was 95% and the “% Damage at 14 DAA, no-mesotrione” value (SETFA, 250 g/ha) was 95%. The colby [30] was 2%, the “% Damage at 14 DAA, 1 g ai ha^−1 mesotrione” value [30] was 98% and the “% Damage at 14 DAA, no-mesotrione” value (SETFA, 500 g/ha) was 97%. The colby [31] was 30%, the “% Damage at 14 DAA, 1 g ai ha^−1 mesotrione” value [31] was 47% and the “% Damage at 14 DAA, no-mesotrione” value (SOLNI, 16 g/ha) was 0%. The colby [32] was 21%, the “% Damage at 14 DAA, 1 g ai ha^−1 mesotrione” value [32] was 60% and the “% Damage at 14 DAA, no-mesotrione” value (SOLNI, 31 g/ha) was 27%. The colby [33] was 18%, the “% Damage at 14 DAA, 1 g ai ha^−1 mesotrione” value [33] was 75% and the “% Damage at 14 DAA, no-mesotrione” value (SOLNI, 63 g/ha) was 48%. The colby [34] was 3%, the “% Damage at 14 DAA, 1 g ai ha^−1 mesotrione” value [34] was 92% and the “% Damage at 14 DAA, no-mesotrione” value (SOLNI, 125 g/ha) was 87%. For the same compound, the colby [35] was 4%, the “% Damage at 14 DAA, 1 g ai ha^−1 mesotrione” value [35] was 100% and the “% Damage at 14 DAA, no-mesotrione” value (SOLNI, 250 g/ha) was 95%. For the same compound, the colby [36] was 0%, the “% Damage at 14 DAA, 1 g ai ha^−1 mesotrione” value [36] was 100% and the “% Damage at 14 DAA, no-mesotrione” value (SOLNI, 500 g/ha) was 100%.
